Results from patent publication US6610289B2, “Mutated herpes simplex virus type 1 thymidine kinases and uses thereof” (The Board of Trustees of the University of Arkansas, priority 1998, dated 2003).

Experiments:
HSV-1 TK = molecular target: T1, HSV-1 TK (Human herpesvirus 1, UniProt P0DTH5); conditions: reference (29); cited from earlier work
T1 sequence (P0DTH5 1-376): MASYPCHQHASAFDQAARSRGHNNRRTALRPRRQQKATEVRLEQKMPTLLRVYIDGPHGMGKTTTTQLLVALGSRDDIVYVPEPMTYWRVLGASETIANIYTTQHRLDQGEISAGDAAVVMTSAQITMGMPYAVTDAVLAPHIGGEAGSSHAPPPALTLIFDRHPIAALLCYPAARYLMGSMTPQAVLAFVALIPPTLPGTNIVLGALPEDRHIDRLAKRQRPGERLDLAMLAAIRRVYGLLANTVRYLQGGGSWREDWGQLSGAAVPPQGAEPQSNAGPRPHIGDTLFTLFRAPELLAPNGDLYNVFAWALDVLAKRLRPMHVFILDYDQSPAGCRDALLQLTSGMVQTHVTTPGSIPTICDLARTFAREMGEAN

HCT-116 cells = test: Clonal dilution assay for bystander effect cell killing; type: cell-based, human; conditions: 25 μM GCV 24 hours
Experimental: Each of the three HSV-1 TK expressing cell lines were plated with parental HCT-116 cells (total 2×10^5/well) in the following proportions: (parental: HSV-1TK cells) 100%:0; 95%:5%; 90%:10%; 75%:25%; 50%:50% and 0:100%. […] After 7 days, surviving cell colonies were fixed in 100% methanol, stained with 0.1% methylene blue and counted.
For determination of GCV sensitivity, parental HCT-116 and each HSV-1 TK expressing cells were seeded in 24 well plates (2×10^5/well) in 1 ml of media. The next day, 0, 0.1, 1 or 10 μM GCV was added to each cell line in triplicate. After 24 hours, for each well the media was removed, cells were rinsed twice in fresh media, trypsinized, then media was added to 1 ml per well. Each well of cells was then sequentially diluted from 1:10 to 1:10,000 in 1 ml of fresh media on a separate 24 well plate. After 7 days, surviving cell colonies were fixed in 100% methanol, stained with 0.1% methylene blue and counted. […]
It has been previously established that HCT-116 cells expressing HSV-1 TK are sensitive to bystander effect cell death via a connexin-43 gap junction mediated transfer of GCV metabolites (24). […] In these same cell lines, a greater than 4-log reduction in cell colony numbers was detected with 25% and 50% proportions of HSV-1 TK-expressing cells. […]

Caspase 3 = Caspase 3 colorimetric assay; type: cell-based, human; conditions: 25 μM GCV, FIG. 8
Experimental: Parental HCT-116, wild-type HSV-1TK, Asn-125TK and Glu-125TK-expressing HCT-116 cells were treated with 0 (black bars) or 25 μM GCV (gray bars) for 4 days. Cell lysates were prepared and caspase 3 assays performed using a colorimetric ApoAlert CPP32/Caspase-3 kit as per manufacturers instructions (Clontech). Relative caspase 3 activity was determined by O.D. 405 nm readings of the cleaved DEVD-pNA substrate and presented as DVEDase activity.
Caspase 3-like activity was determined in parental HCT-116 and each HSV-1 TK expressing cell line treated for 50 hrs plus or minus 25 μM GCV using an Apo-Alert CPP32/Caspase 3 Colorimetric Assay kit with the peptide substrate, DEVD-pNA, as per manufacturers instructions (Clontech Laboratories, INC.). GCV-treated and untreated cells were grown in 25 cm^2 flasks, and cell numbers were determined using a hemocytometer prior to analysis. Assays were done in triplicate with protein extracts derived from 2×10^6 cells. The amount of Caspase 3-like activities were quantitated using a Shimadzu UV/VIS spectophotometer set at 405 nm.
Caspase 3 activity was determined in different cell extracts derived from GCV-treated and control cells using a calorimetric assay with the peptide substrate DVED (SEQ ID No. 4).

| Substance | Km for thymidine lower than that of GCV (HSV-1 TK) | Bystander effect: decrease in cell colony numbers (HCT-116 cells; 10% proportions) [log] | Bystander effect: decrease in cell colony numbers (HCT-116 cells; 50% proportions) [log] | DVED-ase activity of GCV-treated cells relative to GCV-treated wild-type or Asn-125 HSV-1TK-expressing cells (Caspase 3) |
| --- | --- | --- | --- | --- |
| Gln-125 (WT): wild-type herpes simplex virus type 1 thymidine kinase with glutamine at position 125, parent enzyme [reference compound] | 70-100 times |  |  |  |
| Glu-125 |  | 1 | ~3 | three times lower |
